Source: ChEMBL document CHEMBL4270587, “Difuran-substituted quinoxalines as a novel class of PI3Kα H1047R mutant inhibitors: Synthesis, biological evaluation and structure-activity relationship” (Eur J Med Chem, 2018)

Tests used:
MCF7 = assay: cells; settings: Homo sapiens, MCF7, 72 h
Description: Antiproliferative activity against human MCF7 cells after 72 hrs by CCK8 assay

[1] = biological target: PI3-kinase p110-alpha/p85-alpha (Homo sapiens, UniProt P42336); assay: Inhibition of recombinant full length PI3K p110alpha/p85alpha (unknown origin) expressed in baculovirus infected sf9 cells using PIP2 as substrate preincubated for 10 mins followed by ATP addition and measured after 45 mins by HTRF assay
[2] = biological target: PI3-kinase p110-alpha/p85-alpha (Homo sapiens, UniProt P42336, H1047R); assay: Inhibition of recombinant full length PI3K p85alpha/p110alpha H1047R mutant (unknown origin) expressed in baculovirus infected sf9 cells using PIP2 as substrate preincubated for 10 mins followed by ATP addition and measured after 45 mins by HTRF assay
HCT-116 [3] = assay: cells; settings: Homo sapiens, HCT-116, 72 h
[4] = Inhibition of mTORC1 (unknown origin); design: species or system Homo sapiens
HCT-116 [5] = assay: Induction of apoptosis in human HCT116 cells assessed as increase in active caspase-3 protein expression after 72 hrs by Western blot analysis; assay type: functional, cell-based
HCT-116 [6] = assay: Cell cycle arrest in human HCT116 cells assessed as accumulation at G1 phase at 5 uM after 24 hrs by propidium iodide staining based flow cytometry (reference value: 38.72%); assay type: functional
HCT-116 [7] = assay: Induction of apoptosis in human HCT116 cells assessed as early apoptotic cells at 6.25 uM after 24 hrs by Annexin V-FITC/propidium iodide staining based flow cytometry (reference value: 2.24%); assay type: functional
HCT-116 [8] = assay: Induction of apoptosis in human HCT116 cells assessed as live cells at 12.5 uM after 24 hrs by Annexin V-FITC/propidium iodide staining based flow cytometry (reference value: 89.89%); assay type: functional
HCT-116 [9] = assay: Cell cycle arrest in human HCT116 cells assessed as accumulation at G1 phase after 24 hrs by propidium iodide staining based flow cytometry; assay type: functional
HCT-116 [10] = assay: Induction of apoptosis in human HCT116 cells assessed as late apoptotic cells at 6.25 uM after 24 hrs by Annexin V-FITC/propidium iodide staining based flow cytometry (reference value: 7.2%); assay type: functional
[11] = biological target: T1, Phosphatidylinositol 4,5-bisphosphate 3-kinase catalytic subunit delta isoform (Homo sapiens, UniProt O00329); assay: Inhibition of PI3K-delta (unknown origin) after 40 mins by Kinase-Glo assay
T1 sequence (O00329 whole entry): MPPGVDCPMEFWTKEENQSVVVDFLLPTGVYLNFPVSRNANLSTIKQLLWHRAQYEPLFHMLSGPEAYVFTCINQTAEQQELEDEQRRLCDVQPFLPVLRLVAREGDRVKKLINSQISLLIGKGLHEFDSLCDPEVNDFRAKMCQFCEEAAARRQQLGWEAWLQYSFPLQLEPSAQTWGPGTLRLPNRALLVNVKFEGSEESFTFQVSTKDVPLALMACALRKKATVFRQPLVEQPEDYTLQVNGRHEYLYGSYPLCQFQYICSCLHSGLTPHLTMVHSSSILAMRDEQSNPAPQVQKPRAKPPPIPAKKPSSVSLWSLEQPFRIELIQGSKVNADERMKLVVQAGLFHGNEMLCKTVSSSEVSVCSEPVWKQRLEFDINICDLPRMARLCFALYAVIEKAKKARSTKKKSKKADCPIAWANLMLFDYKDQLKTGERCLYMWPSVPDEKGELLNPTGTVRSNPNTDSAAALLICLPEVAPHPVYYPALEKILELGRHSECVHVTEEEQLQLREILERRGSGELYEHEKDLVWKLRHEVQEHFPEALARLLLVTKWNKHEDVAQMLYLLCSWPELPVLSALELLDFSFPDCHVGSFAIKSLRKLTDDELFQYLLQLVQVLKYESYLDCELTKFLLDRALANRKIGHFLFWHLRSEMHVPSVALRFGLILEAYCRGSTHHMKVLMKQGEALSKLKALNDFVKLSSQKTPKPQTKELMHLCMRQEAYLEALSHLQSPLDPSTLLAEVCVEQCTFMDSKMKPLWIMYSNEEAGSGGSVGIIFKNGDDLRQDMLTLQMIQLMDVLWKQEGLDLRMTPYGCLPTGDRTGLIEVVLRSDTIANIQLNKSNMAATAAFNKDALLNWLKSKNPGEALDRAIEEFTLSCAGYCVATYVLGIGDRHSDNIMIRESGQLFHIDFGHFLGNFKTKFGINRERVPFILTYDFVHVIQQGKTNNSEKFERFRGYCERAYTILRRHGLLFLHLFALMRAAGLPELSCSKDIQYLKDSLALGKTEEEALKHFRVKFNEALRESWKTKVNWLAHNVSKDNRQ

HCT-116 [12] = assay: Cell cycle arrest in human HCT116 cells assessed as accumulation at G2/M-phase at 5 uM after 24 hrs by propidium iodide staining based flow cytometry (reference value: 31.47%); assay type: functional
HCT-116 [13] = assay: Induction of apoptosis in human HCT116 cells assessed as late apoptotic cells at 12.5 uM after 24 hrs by Annexin V-FITC/propidium iodide staining based flow cytometry (reference value: 7.2%); assay type: functional
HCT-116 [14] = assay: Cell cycle arrest in human HCT116 cells assessed as accumulation at S-phase at 5 uM after 24 hrs by propidium iodide staining based flow cytometry (reference value: 29.81%); assay type: functional
[15] = biological target: Phosphatidylinositol 4,5-bisphosphate 3-kinase catalytic subunit gamma isoform (Homo sapiens, UniProt P48736); assay: Inhibition of PI3K-gamma (unknown origin) after 40 mins by Kinase-Glo assay
HCT-116 [16] = assay: Induction of apoptosis in human HCT116 cells assessed as necrotic cells at 12.5 uM after 24 hrs by Annexin V-FITC/propidium iodide staining based flow cytometry (reference value: […]); assay type: functional
HCT-116 [17] = assay: Induction of apoptosis in human HCT116 cells assessed as increase in active caspase-9 protein expression after 72 hrs by Western blot analysis; assay type: functional, cell-based
HCT-116 [18] = assay: Induction of apoptosis in human HCT116 cells assessed as necrotic cells at 25 uM after 24 hrs by Annexin V-FITC/propidium iodide staining based flow cytometry (reference value: […]); assay type: functional
HCT-116 [19] = assay: Cell cycle arrest in human HCT116 cells assessed as accumulation at G1 phase at 20 uM after 24 hrs by propidium iodide staining based flow cytometry (reference value: 38.72%); assay type: functional
HCT-116 [20] = assay: Induction of apoptosis in human HCT116 cells assessed as live cells at 6.25 uM after 24 hrs by Annexin V-FITC/propidium iodide staining based flow cytometry (reference value: 89.89%); assay type: functional
HCT-116 [21] = assay: Cell cycle arrest in human HCT116 cells assessed as accumulation at G2/M-phase at 20 uM after 24 hrs by propidium iodide staining based flow cytometry (reference value: 31.47%); assay type: functional
HCT-116 [22] = assay: Induction of apoptosis in human HCT116 cells assessed as increase in active caspase-8 protein expression after 72 hrs by Western blot analysis; assay type: functional, cell-based
HCT-116 [23] = assay: Induction of apoptosis in human HCT116 cells assessed as necrotic cells at 6.25 uM after 24 hrs by Annexin V-FITC/propidium iodide staining based flow cytometry (reference value: […]); assay type: functional
HCT-116 [24] = assay: Cell cycle arrest in human HCT116 cells assessed as accumulation at G2/M-phase at 10 uM after 24 hrs by propidium iodide staining based flow cytometry (reference value: 31.47%); assay type: functional
HCT-116 [25] = assay: Cell cycle arrest in human HCT116 cells assessed as accumulation at G1 phase at 10 uM after 24 hrs by propidium iodide staining based flow cytometry (reference value: 38.72%); assay type: functional
[26] = biological target: Phosphatidylinositol 4,5-bisphosphate 3-kinase catalytic subunit beta isoform (Homo sapiens, UniProt P42338); assay: Inhibition of PI3K-beta (unknown origin) after 40 mins by Kinase-Glo assay
HCT-116 [27] = assay: Induction of apoptosis in human HCT116 cells assessed as late apoptotic cells at 25 uM after 24 hrs by Annexin V-FITC/propidium iodide staining based flow cytometry (reference value: 7.2%); assay type: functional
HCT-116 [28] = assay: Cell cycle arrest in human HCT116 cells assessed as accumulation at S-phase at 20 uM after 24 hrs by propidium iodide staining based flow cytometry (reference value: 29.81%); assay type: functional
HCT-116 [29] = assay: Induction of apoptosis in human HCT116 cells after 24 hrs by Annexin V-FITC/propidium iodide staining based flow cytometry; assay type: functional, cell-based
HCT-116 [30] = assay: Induction of apoptosis in human HCT116 cells assessed as early apoptotic cells at 12.5 uM after 24 hrs by Annexin V-FITC/propidium iodide staining based flow cytometry (reference value: 2.24%); assay type: functional
HCT-116 [31] = assay: Induction of apoptosis in human HCT116 cells assessed as live cells at 25 uM after 24 hrs by Annexin V-FITC/propidium iodide staining based flow cytometry (reference value: 89.89%); assay type: functional
HCT-116 [32] = assay: Cell cycle arrest in human HCT116 cells assessed as accumulation at S-phase at 10 uM after 24 hrs by propidium iodide staining based flow cytometry (reference value: 29.81%); assay type: functional
HCT-116 [33] = assay: Induction of apoptosis in human HCT116 cells assessed as early apoptotic cells at 25 uM after 24 hrs by Annexin V-FITC/propidium iodide staining based flow cytometry (reference value: 2.24%); assay type: functional

PI3-kinase p110-alpha/p85-alpha (Homo sapiens, UniProt P42336, H1047R), sequence (P42336 whole entry H1047R, looked up): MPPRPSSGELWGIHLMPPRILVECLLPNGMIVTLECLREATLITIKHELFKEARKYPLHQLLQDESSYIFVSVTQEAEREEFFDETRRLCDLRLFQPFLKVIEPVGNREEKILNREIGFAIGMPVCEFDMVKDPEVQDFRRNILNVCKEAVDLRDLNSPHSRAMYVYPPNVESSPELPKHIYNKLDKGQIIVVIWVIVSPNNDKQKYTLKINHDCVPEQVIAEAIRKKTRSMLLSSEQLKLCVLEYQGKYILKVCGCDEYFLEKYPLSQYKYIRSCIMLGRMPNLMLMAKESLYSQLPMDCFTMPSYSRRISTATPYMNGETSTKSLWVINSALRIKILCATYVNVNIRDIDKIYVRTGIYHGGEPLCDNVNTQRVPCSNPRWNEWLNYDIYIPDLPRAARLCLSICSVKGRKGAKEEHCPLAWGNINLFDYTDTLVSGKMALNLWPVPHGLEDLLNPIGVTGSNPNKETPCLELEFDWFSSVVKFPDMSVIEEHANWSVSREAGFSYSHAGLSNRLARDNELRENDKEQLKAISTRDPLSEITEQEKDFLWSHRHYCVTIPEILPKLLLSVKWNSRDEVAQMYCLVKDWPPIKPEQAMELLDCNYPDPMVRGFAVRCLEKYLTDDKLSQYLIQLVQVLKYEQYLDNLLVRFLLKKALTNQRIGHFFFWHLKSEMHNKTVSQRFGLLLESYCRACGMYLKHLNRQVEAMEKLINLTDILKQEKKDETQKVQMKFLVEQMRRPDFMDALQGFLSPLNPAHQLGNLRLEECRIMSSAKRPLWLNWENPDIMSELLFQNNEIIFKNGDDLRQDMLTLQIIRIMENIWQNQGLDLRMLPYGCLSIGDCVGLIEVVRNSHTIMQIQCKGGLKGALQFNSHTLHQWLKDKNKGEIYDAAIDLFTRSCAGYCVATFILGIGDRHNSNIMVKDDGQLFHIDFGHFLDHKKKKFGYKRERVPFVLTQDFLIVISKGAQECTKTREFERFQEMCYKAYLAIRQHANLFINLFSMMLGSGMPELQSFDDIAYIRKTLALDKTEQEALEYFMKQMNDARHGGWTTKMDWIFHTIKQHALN
PI3-kinase p110-alpha/p85-alpha (Homo sapiens, UniProt P42336), sequence (P27986 whole entry): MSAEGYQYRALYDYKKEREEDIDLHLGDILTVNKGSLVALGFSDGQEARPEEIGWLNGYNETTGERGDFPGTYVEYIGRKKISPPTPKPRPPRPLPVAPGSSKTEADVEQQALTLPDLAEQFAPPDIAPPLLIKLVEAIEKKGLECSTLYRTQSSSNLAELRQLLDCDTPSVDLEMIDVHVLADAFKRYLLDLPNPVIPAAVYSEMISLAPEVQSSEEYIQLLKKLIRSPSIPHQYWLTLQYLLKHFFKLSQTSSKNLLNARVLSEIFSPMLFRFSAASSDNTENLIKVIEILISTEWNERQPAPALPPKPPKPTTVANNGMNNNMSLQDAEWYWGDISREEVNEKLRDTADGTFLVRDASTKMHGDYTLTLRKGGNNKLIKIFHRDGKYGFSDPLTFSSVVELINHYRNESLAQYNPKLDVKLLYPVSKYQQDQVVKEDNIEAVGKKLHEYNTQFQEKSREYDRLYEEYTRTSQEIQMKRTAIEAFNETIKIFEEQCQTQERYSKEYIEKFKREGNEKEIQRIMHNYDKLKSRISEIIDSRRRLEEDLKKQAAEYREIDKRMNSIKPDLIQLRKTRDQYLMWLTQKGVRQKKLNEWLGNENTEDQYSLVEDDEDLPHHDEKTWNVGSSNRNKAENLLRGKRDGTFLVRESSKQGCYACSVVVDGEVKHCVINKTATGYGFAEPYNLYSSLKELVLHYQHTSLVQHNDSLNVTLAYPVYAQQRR
PI3-kinase p110-alpha/p85-alpha (Homo sapiens, UniProt P42336), sequence (P42336 whole entry): as the sequence (P42336 whole entry H1047R, looked up) above, with R1047H counted along it
Phosphatidylinositol 4,5-bisphosphate 3-kinase catalytic subunit beta isoform, sequence (P42338 whole entry, canonical isoform): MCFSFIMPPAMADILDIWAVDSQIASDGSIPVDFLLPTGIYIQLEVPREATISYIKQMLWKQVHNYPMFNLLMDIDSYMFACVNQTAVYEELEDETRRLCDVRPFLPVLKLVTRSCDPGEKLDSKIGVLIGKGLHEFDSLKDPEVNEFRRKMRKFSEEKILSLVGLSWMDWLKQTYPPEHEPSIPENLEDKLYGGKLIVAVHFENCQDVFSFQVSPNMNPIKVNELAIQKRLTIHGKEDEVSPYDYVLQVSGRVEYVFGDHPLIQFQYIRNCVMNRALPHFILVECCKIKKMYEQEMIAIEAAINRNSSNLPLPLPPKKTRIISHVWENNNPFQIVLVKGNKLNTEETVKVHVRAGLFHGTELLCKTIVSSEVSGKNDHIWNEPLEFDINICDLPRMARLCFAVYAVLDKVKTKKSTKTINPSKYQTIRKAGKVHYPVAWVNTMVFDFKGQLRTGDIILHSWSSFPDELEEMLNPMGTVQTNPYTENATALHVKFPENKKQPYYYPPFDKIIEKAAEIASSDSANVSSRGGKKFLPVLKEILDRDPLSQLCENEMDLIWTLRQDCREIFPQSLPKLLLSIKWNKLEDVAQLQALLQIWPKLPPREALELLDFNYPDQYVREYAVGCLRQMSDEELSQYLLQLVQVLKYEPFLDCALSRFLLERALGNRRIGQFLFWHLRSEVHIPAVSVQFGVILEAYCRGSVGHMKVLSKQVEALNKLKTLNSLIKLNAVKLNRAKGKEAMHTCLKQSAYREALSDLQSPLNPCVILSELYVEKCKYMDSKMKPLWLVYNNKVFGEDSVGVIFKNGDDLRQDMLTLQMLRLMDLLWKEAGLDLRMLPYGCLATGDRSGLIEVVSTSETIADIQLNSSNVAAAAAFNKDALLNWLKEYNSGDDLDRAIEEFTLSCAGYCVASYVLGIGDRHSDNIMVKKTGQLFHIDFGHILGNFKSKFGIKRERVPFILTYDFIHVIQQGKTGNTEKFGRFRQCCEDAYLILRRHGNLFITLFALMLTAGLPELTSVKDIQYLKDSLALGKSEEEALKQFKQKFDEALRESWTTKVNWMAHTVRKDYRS
Phosphatidylinositol 4,5-bisphosphate 3-kinase catalytic subunit gamma isoform, sequence (P48736 whole entry, canonical isoform): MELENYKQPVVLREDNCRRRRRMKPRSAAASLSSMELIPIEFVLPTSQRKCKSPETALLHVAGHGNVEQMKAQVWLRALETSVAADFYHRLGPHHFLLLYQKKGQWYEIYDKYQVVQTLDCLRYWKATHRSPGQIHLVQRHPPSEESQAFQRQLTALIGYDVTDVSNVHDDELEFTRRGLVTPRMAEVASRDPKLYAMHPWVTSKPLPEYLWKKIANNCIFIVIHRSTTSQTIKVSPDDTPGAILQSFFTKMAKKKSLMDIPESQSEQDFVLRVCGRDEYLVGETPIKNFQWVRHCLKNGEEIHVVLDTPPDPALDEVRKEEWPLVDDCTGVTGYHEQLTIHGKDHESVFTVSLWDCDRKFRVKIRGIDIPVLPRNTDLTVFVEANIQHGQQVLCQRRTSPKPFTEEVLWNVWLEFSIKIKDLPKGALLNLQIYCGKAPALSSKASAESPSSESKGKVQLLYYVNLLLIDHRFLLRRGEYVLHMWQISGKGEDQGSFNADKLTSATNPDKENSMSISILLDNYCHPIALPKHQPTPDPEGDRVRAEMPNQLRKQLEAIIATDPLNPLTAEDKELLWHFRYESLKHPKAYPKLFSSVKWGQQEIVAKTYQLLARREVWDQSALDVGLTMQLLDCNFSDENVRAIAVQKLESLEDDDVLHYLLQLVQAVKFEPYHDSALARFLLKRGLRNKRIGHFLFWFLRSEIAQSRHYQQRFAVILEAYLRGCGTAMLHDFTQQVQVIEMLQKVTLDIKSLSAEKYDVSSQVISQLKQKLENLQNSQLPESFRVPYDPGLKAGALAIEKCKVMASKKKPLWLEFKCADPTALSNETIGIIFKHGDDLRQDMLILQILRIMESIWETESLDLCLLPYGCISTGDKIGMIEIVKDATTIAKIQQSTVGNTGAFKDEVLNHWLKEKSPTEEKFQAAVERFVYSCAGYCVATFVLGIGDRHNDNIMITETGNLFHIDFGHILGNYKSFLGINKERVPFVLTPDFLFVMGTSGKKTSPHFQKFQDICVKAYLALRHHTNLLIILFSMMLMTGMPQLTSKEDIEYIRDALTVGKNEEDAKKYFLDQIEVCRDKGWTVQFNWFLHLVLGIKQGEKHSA

Compound: FC(F)(F)c1ccccc1-c1cc2nc(-c3ccco3)c(-c3ccco3)nc2cc1Br
- IC50 (MCF7): 15.5 µM
- EC50 [1]: 0.097 µM
- EC50 [2]: 0.169 µM
- IC50 (HCT-116 [3]): 13.5 µM

Compound: Cn1c(=O)n(-c2ccc(C(C)(C)C#N)cc2)c2c3cc(-c4cnc5ccccc5c4)ccc3ncc21 [DACTOLISIB]
- EC50 [4]: 0.079 µM

Compound: FC(F)(F)c1ccccc1-c1ccc2nc(-c3ccco3)c(-c3ccco3)nc2c1
- IC50 (MCF7): > 50 µM
- EC50 [1]: 12.8 µM
- EC50 [2]: 11.8 µM
- IC50 (HCT-116 [3]): 45.3 µM

Compound: Fc1ccccc1-c1cc2nc(-c3ccco3)c(-c3ccco3)nc2cc1Br
- Activity (HCT-116 [5]): Dose-dependent effect
- Activity (HCT-116 [6]): 44.42%
- Activity (HCT-116 [7]): 3.57%
- Activity (HCT-116 [8]): 80.29%
- Activity (HCT-116 [9]): Dose-dependent effect
- Activity (HCT-116 [10]): 10.63%
- EC50 [11]: 15.7 µM
- IC50 (MCF7): 13.7 µM
- Activity (HCT-116 [12]): 32.16%
- Activity (HCT-116 [13]): 15.72%
- EC50 [1]: 0.093 µM
- Activity (HCT-116 [14]): 24.42%
- EC50 [15]: 9.89 µM
- Activity (HCT-116 [16]): 0.96%
- EC50 [2]: 0.137 µM
- Activity (HCT-116 [17]): Dose-dependent effect
- Activity (HCT-116 [18]): 0.88%
- Activity (HCT-116 [19]): 70.72%
- Activity (HCT-116 [20]): 84.79%
- Activity (HCT-116 [21]): 11%
- IC50 (HCT-116 [3]): 11.2 µM
- Activity (HCT-116 [22]): Dose-dependent effect
- Activity (HCT-116 [23]): 1.01%
- EC50 [4]: > 30 µM
- Activity (HCT-116 [24]): 20.34%
- Activity (HCT-116 [25]): 57.67%
- EC50 [26]: 3.34 µM
- Activity (HCT-116 [27]): 23.77%
- Activity (HCT-116 [28]): 18.28%
- Activity (HCT-116 [29]): Dose-dependent effect
- Activity (HCT-116 [30]): 3.03%
- Activity (HCT-116 [31]): 61.38%
- Activity (HCT-116 [32]): 21.99%
- Activity (HCT-116 [33]): 13.97%

Compound: Brc1ccc2nc(-c3ccco3)c(-c3ccco3)nc2c1
- IC50 (MCF7): > 50 µM
- EC50 [1]: 27.6 µM
- EC50 [2]: 33.5 µM
- IC50 (HCT-116 [3]): > 50 µM

Compound: c1csc(-c2nc3ccccc3nc2-c2cccs2)c1
- IC50 (MCF7): > 50 µM
- EC50 [2]: > 100 µM
- IC50 (HCT-116 [3]): > 50 µM

Compound: c1ccc(-c2ccc3nc(-c4ccco4)c(-c4ccco4)nc3c2)cc1
- IC50 (MCF7): > 50 µM
- EC50 [1]: 12.4 µM
- EC50 [2]: 47.8 µM
- IC50 (HCT-116 [3]): > 50 µM

Compound: Clc1cc(Cl)c2nc(-c3ccco3)c(-c3ccco3)nc2c1
- IC50 (MCF7): > 50 µM
- EC50 [1]: 54.6 µM
- EC50 [2]: 76 µM
- IC50 (HCT-116 [3]): > 50 µM

Compound: Clc1ccccc1-c1cc2nc(-c3ccco3)c(-c3ccco3)nc2cc1Br
- IC50 (MCF7): > 50 µM
- EC50 [2]: > 100 µM
- IC50 (HCT-116 [3]): > 50 µM

Compound: Clc1ccc2nc(-c3ccco3)c(-c3ccco3)nc2c1Cl
- IC50 (MCF7): > 50 µM
- EC50 [2]: > 100 µM
- IC50 (HCT-116 [3]): > 50 µM
